Laboratory results as given in patent US8501752B2, “Methods for treating cancer and other pathological proliferating disorders by inhibiting mitosis using pyrrolo[2,3-d]pyrimidines” (Duquesne University of the Holy Ghost, priority 2005, dated 2013).
Read-outs that look alike come from different tables or passages of the source.

Legend:
HL-60(TB) = assay: NCI IVCLSP growth inhibition (SRB), HL-60(TB); type: cell-based, human; conditions: 48 h drug incubation
Method: (§1) FIG. 1 presents nine compounds that were tested using the National Cancer Institute (NCI) 60 human tumor cell lines. The cells lines, which represent leukemia, melanoma, and cancers of the lung, colon, brain, ovary, breast, prostate, and kidney, are listed in Table 1.
(§2) Compounds 1-9 were tested according to the NCI Developmental Therapeutics Program (DTP) In Vitro Cell Line Screening Project (IVCLSP). […] Methodology for testing under the IVCLSP is as follows: The human tumor cell lines of the cancer screening panel are grown in RPMI 1640 medium containing 5% fetal bovine serum and 2 mM L-glutamine. […]
(§3) Following drug addition, the plates are incubated for an additional 48 h at 37° C., 5% CO2, 95% air, and 100% relative humidity. […] Bound stain is subsequently solubilized with 10 mM trizma base, and the absorbance is read on an automated plate reader at a wavelength of 515 nm. […] Using the seven absorbance measurements [time zero, (Tz), control growth, (C), and test growth in the presence of drug at the five concentration levels (Ti)], the percentage growth is calculated at each of the drug concentrations levels. Percentage growth inhibition is calculated as: [(Ti−Tz)/(C−Tz)]×100 for concentrations for which Ti>/=Tz [(Ti−Tz)/Tz]×100 for concentrations for which Ti<Tz.
(§4) Three dose response parameters are calculated for each experimental agent. […]

MOLT-4 = assay: NCI IVCLSP growth inhibition (SRB), MOLT-4; type: cell-based, human; conditions: 48 h drug incubation
Method: as §1, §2, §3, §4

A549/ATCC = assay: NCI IVCLSP growth inhibition (SRB), A549/ATCC; type: cell-based, human; conditions: 48 h drug incubation
Method: as §1, §2, §3, §4

COLO 205 = assay: NCI IVCLSP growth inhibition (SRB), COLO 205; type: cell-based, human; conditions: 48 h drug incubation
Method: as §1, §2, §3, §4

SK-MEL-2 = assay: NCI IVCLSP growth inhibition (SRB), SK-MEL-2; type: cell-based, human; conditions: 48 h drug incubation
Method: as §1, §2, §3, §4

UACC-257 = assay: NCI IVCLSP growth inhibition (SRB), UACC-257; type: cell-based, human; conditions: 48 h drug incubation
Method: as §1, §2, §3, §4

IGROVI = assay: NCI IVCLSP growth inhibition (SRB), IGROVI; type: cell-based, human; conditions: 48 h drug incubation
Method: as §1, §2, §3, §4

OVCAR-3 = assay: NCI IVCLSP growth inhibition (SRB), OVCAR-3; type: cell-based, human; conditions: 48 h drug incubation
Method: as §1, §2, §3, §4

ACHN = assay: NCI IVCLSP growth inhibition (SRB), ACHN; type: cell-based, human; conditions: 48 h drug incubation
Method: as §1, §2, §3, §4

HCT-15 = assay: NCI IVCLSP growth inhibition (SRB), HCT-15; type: cell-based, human; conditions: 48 h drug incubation
Method: as §1, §2, §3, §4

HT29 = assay: NCI IVCLSP growth inhibition (SRB), HT29; type: cell-based, human; conditions: 48 h drug incubation
Method: as §1, §2, §3, §4

SF-268 = assay: NCI IVCLSP growth inhibition (SRB), SF-268; type: cell-based, human; conditions: 48 h drug incubation
Method: as §1, §2, §3, §4

SF-295 = assay: NCI IVCLSP growth inhibition (SRB), SF-295; type: cell-based, human; conditions: 48 h drug incubation
Method: as §1, §2, §3, §4

U251 = assay: NCI IVCLSP growth inhibition (SRB), U251; type: cell-based, human; conditions: 48 h drug incubation
Method: as §1, §2, §3, §4

LOX IMVI = assay: NCI IVCLSP growth inhibition (SRB), LOX IMVI; type: cell-based, human; conditions: 48 h drug incubation
Method: as §1, §2, §3, §4

SN12C = assay: NCI IVCLSP growth inhibition (SRB), SN12C; type: cell-based, human; conditions: 48 h drug incubation
Method: as §1, §2, §3, §4

TKIO = assay: NCI IVCLSP growth inhibition (SRB), TKIO; type: cell-based, human; conditions: 48 h drug incubation
Method: as §1, §2, §3, §4

HS 578T = assay: NCI IVCLSP growth inhibition (SRB), HS 578T; type: cell-based, human; conditions: 48 h drug incubation
Method: as §1, §2, §3, §4

MDA-MB-435 = assay: NCI IVCLSP growth inhibition (SRB), MDA-MB-435; type: cell-based, human; conditions: 48 h drug incubation
Method: as §1, §2, §3, §4

MDA-N = assay: NCI IVCLSP growth inhibition (SRB), MDA-N; type: cell-based, human; conditions: 48 h drug incubation
Method: as §1, §2, §3, §4

T-47D = assay: NCI IVCLSP growth inhibition (SRB), T-47D; type: cell-based, human; conditions: 48 h drug incubation
Method: as §1, §2, §3, §4

p53 = assay: Western blot, p53 expression in MCF-7 cells; type: cell-based, human; conditions: 24 hours, various concentrations
Method: To further characterize the cell cycle effects of Compound 1 on human tumor cells, MCF-7 cells were treated for 24 hours with various concentrations of Compound 1, vinblastine, or TAXOL (paclitaxel). Cells were then harvested, lysed, and analyzed for levels of expression of p53 and WAF1 by Western Blot analyses. […] Compound 1 is identified as “149” in these figures. […] None of these treatments affected the expression of bcl-2 or P-tubulin in the MCF-7 cells.

NCI/ADR cells = assay: Cytotoxicity, NCI/ADR cells that overexpress P-glycoprotein; conditions: for IC50: mean ± SEM for 3 experiments
Text: These cell lines are resistant to anticancer drugs due to overexpression of the transport proteins P-glycoprotein or MRP1.

For COc1cc(CCc2cn(Cc3ccccc3)c3nc(N)nc(C)c23)cc(OC)c1OC [Compound 1], the GI50 (HL-60(TB)) was 64.7 nM, the GI50 (MOLT-4) was 285 nM and the GI50 (A549/ATCC) was 173 nM. It also gave a GI50 (COLO 205) of 190 nM, a GI50 (SK-MEL-2) of 381 nM and a GI50 (UACC-257) of 80.2 nM. The GI50 (IGROVI) was 61.1 nM, the GI50 (OVCAR-3) was 28.8 nM and the GI50 (ACHN) was 728 nM. It also gave a GI50 (HCT-15) of 127 nM, a GI50 (HT29) of 281 nM and a GI50 (SF-268) of 669 nM. For the same compound, the GI50 (SF-295) was 41.8 nM, the GI50 (U251) was 144 nM and the GI50 (LOX IMVI) was 250 nM. For the same compound, the GI50 (SN12C) was 537 nM, the GI50 (TKIO) was 961 nM and the GI50 (HS 578T) was 283 nM. For the same compound, the GI50 (MDA-MB-435) was 10.1 nM, the GI50 (MDA-N) was less than 10 nM and the GI50 (T-47D) was 563 nM. For the same compound, the “level of expression of p53 (in words)” value (p53) was “induced the expression”, the “Resistance (NCI/ADR relative to MCF-7)” value (NCI/ADR cells; P-glycoprotein) was 1.3 and the IC50 (NCI/ADR cells; read-out: Cytotoxicity IC50, NCI/ADR) was 250 ± 120 nM. It also gave an IC50 (NCI/ADR cells; read-out: drug sensitivity (IC50), NCI/ADR, Table 4, P-glycoprotein overexpressing) of 350 ± 40 nM.
